Assay results: the supplement of paper PMC10307832

Columns and labels:
Assay in all cases: relative viability (nuclei count vs DMSO), 5 days (fraction); higher = more cells survive
DM3189 + Phenformin = compound: C1CN(CCN1)C2=CC=C(C=C2)C3=CN4C(=C(C=N4)C5=CC=NC6=CC=CC=C56)N=C3 [DM3189] + N=C(N)NC(=N)NCCc1ccccc1 [Phenformin] (partner 250 µM)
Outline: (§1)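 Lung cancer cell lines in 1536-well plates were dosed by pin tool the day after seeding, either with one drug alone or with a fixed anchor-drug dose plus five library-drug doses (not always all listed) in √10 steps. After 5 days, cells were fixed and their nuclei stained in one step (final 0.05% Triton X-100, 1% formaldehyde, 1 ug/ml Hoechst), then counted on 4× images. Relative viability is the nuclei count in treated wells divided by that in vehicle wells. Values are medians of duplicate plates.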

DM3189 + Pictilisib = compound: C1CN(CCN1)C2=CC=C(C=C2)C3=CN4C(=C(C=N4)C5=CC=NC6=CC=CC=C56)N=C3 [DM3189] + CS(=O)(=O)N1CCN(Cc2cc3nc(-c4cccc5[nH]ncc45)nc(N4CCOCC4)c3s2)CC1 [Pictilisib] (partner 1 µM)
Outline: as §1

DM3189 + Lapatinib = compound: C1CN(CCN1)C2=CC=C(C=C2)C3=CN4C(=C(C=N4)C5=CC=NC6=CC=CC=C56)N=C3 [DM3189] + CS(=O)(=O)CCNCc1ccc(-c2ccc3ncnc(Nc4ccc(OCc5cccc(F)c5)c(Cl)c4)c3c2)o1 [Lapatinib] (partner 2 µM)
Outline: as §1

DM3189 + Alpelisib = compound: C1CN(CCN1)C2=CC=C(C=C2)C3=CN4C(=C(C=N4)C5=CC=NC6=CC=CC=C56)N=C3 [DM3189] + Cc1nc(NC(=O)N2CCC[C@H]2C(N)=O)sc1-c1ccnc(C(C)(C)C(F)(F)F)c1 [Alpelisib] (partner 2 µM)
Outline: as §1

DM3189 + Dasatinib = compound: C1CN(CCN1)C2=CC=C(C=C2)C3=CN4C(=C(C=N4)C5=CC=NC6=CC=CC=C56)N=C3 [DM3189] + Cc1nc(Nc2ncc(C(=O)Nc3c(C)cccc3Cl)s2)cc(N2CCN(CCO)CC2)n1 [Dasatinib] (partner 0.075 µM)
Outline: as §1

| Cell Line | relative viability (DM3189 + Phenformin; first compound 0.08 µM) | relative viability (DM3189 + Phenformin; first compound 0.253 µM) | relative viability (DM3189 + Phenformin; first compound 0.8 µM) | relative viability (DM3189 + Phenformin; first compound 2.53 µM) | relative viability (DM3189 + Pictilisib; first compound 0.08 µM) | relative viability (DM3189 + Pictilisib; first compound 0.253 µM) | relative viability (DM3189 + Pictilisib; first compound 0.8 µM) | relative viability (DM3189 + Pictilisib; first compound 2.53 µM) | relative viability (DM3189 + Lapatinib; first compound 0.08 µM) | relative viability (DM3189 + Lapatinib; first compound 0.253 µM) | relative viability (DM3189 + Lapatinib; first compound 0.8 µM) | relative viability (DM3189 + Lapatinib; first compound 2.53 µM) | relative viability (DM3189 + Alpelisib; first compound 0.08 µM) | relative viability (DM3189 + Alpelisib; first compound 0.253 µM) | relative viability (DM3189 + Alpelisib; first compound 0.8 µM) | relative viability (DM3189 + Alpelisib; first compound 2.53 µM) | relative viability (DM3189 + Dasatinib; first compound 0.08 µM) | relative viability (DM3189 + Dasatinib; first compound 0.253 µM) | relative viability (DM3189 + Dasatinib; first compound 0.8 µM) | relative viability (DM3189 + Dasatinib; first compound 2.53 µM) |
| --- | --- | --- | --- | --- | --- | --- | --- | --- | --- | --- | --- | --- | --- | --- | --- | --- | --- | --- | --- | --- |
| EMC-BAC-2 | 0.554 | 0.495 | 0.456 | 0.436 | 0.587 | 0.538 | 0.507 | 0.54 | 0.894 | 0.888 | 0.859 | 0.934 | 0.684 | 0.432 | 0.718 | 0.8 | 0.372 | 0.32 | 0.319 | 0.353 |
| EPLC-272H | 0.284 | 0.293 | 0.25 | 0.276 | 0.322 | 0.347 | 0.276 | 0.27 | 1.1 | 0.842 | 0.933 | 0.762 | 0.876 | 1.1 | 0.916 | 0.838 | 0.406 | 0.375 | 0.276 | 0.265 |
| H3255 | 0.305 | 0.422 | 0.338 | 0.376 | 0.585 | 0.511 | 0.446 | 0.529 | 0.259 | 0.267 | 0.224 | 0.277 | 0.834 | 0.739 | 0.681 | 0.847 | 0.553 | 0.303 | 0.442 | 0.32 |
| HARA | 0.515 | 0.42 | 0.391 | 0.568 | 0.645 | 0.362 | 0.288 | 0.35 | 0.93 | 0.625 | 0.6 | 0.856 | 0.801 | 0.766 | 0.787 | 0.958 | 0.358 | 0.262 | 0.306 | 0.313 |
| HCC-15 | 0.555 | 0.437 | 0.41 | 0.435 | 0.764 | 0.695 | 0.584 | 0.661 | 0.983 | 0.843 | 0.81 | 0.816 | 0.951 | 0.798 | 0.802 | 0.894 | 0.632 | 0.541 | 0.492 | 0.559 |
| HCC-78 | 0.713 | 0.754 | 0.724 | 0.605 | 0.206 | 0.188 |  | 0.224 | 0.981 | 0.656 |  | 0.825 | 0.635 | 0.315 |  | 0.311 | 0.362 | 0.495 | 0.393 | 0.381 |
| HCC-366 | 0.531 | 0.611 |  | 0.605 | 0.209 | 0.134 | 0.116 | 0.137 | 0.839 | 0.93 | 0.681 | 0.931 | 0.417 | 0.436 | 0.167 | 0.423 | 0.943 | 0.759 |  | 0.846 |
| HCC-827 | 0.443 | 0.444 | 0.441 | 0.431 | 1.19 | 1.06 | 1.02 | 1.15 | 0.179 | 0.161 | 0.16 | 0.192 | 1.1 | 0.888 | 0.847 | 1.03 | 0.378 | 0.276 | 0.317 | 0.378 |
| HOP-62 | 0.691 | 0.722 | 0.6 | 0.682 | 0.86 | 0.562 | 0.572 | 0.836 | 1.23 | 0.968 | 1.01 | 0.977 | 1.29 | 1.11 | 0.773 | 0.911 | 0.78 | 0.65 | 0.716 | 0.68 |
| LC-2-ad | 0.689 | 0.531 | 0.533 | 0.584 | 0.588 | 0.563 | 0.397 | 0.473 | 0.946 | 0.787 | 0.823 | 0.836 | 0.822 | 0.76 | 0.857 | 0.71 | 0.636 | 0.487 | 0.458 | 0.572 |
| LCLC-97TM1 | 0.459 | 0.364 | 0.433 | 0.399 | 0.186 | 0.151 | 0.159 | 0.13 | 0.744 | 0.488 | 0.416 | 0.755 | 0.163 | 0.239 | 0.219 | 0.185 | 0.768 | 0.591 | 0.591 | 0.375 |
| LK-2 | 0.29 | 0.26 | 0.228 | 0.237 | 0.378 | 0.278 | 0.262 | 0.306 | 0.613 | 0.625 | 0.458 | 0.43 | 1.05 | 0.6 | 0.445 | 0.564 | 0.294 | 0.287 | 0.221 | 0.29 |
| LOU-NH91 | 0.886 | 0.689 | 0.706 | 0.747 | 0.534 | 0.517 | 0.477 | 0.519 | 0.76 | 0.704 | 0.544 | 0.605 | 0.765 | 0.702 | 0.668 | 0.683 | 0.688 | 0.541 | 0.51 | 0.475 |
| LU99A | 0.964 | 0.735 |  | 0.8 | 0.32 | 0.263 |  | 0.316 | 1.02 | 0.879 |  | 0.987 | 0.468 | 0.422 |  | 0.384 | 0.748 | 0.565 |  | 0.595 |
| LXF-289 | 0.529 | 0.491 | 0.501 | 0.527 | 0.834 | 0.773 | 0.775 | 0.935 | 0.9 | 0.934 | 0.868 | 0.981 | 1.03 | 1.03 | 1.01 | 1.14 | 0.264 | 0.197 | 0.189 | 0.223 |
| NCI-H23 | 0.865 | 0.761 | 0.643 | 0.826 | 0.637 | 0.462 | 0.385 | 0.442 | 1.32 | 0.888 | 0.994 | 1.19 | 0.768 | 0.741 | 0.675 | 0.699 | 0.878 | 0.713 | 0.716 | 0.749 |
